“Also recorded” adds a separate entry of the source. Like-named read-outs stand apart in the source and are kept apart here.
Key:
[1] = test system: mouse peritoneal macrophages; experiment: proteolysis by mouse peritoneal macrophages; conditions: for Potency ratio in the proteolytic test: 50 mg/kg i.p. in sesame oil, 10 replication, coumarin = 1; for Mean ICA-soluble fragm. (24 h-0 h) x 10^6 cell: 10 mice; for minimal effective dose: Mus musculus, Peritoneal macrophage, ip; for increase in proteolysis: at the higher doses, coumarin at similar doses
Source text: Ability of the 6-fluoro coumarin itself, and the other compounds of the invention, to increase proteolysis by mouse peritoneal macrophages is shown by using the testing procedure reported by T. Bolton and J. R. Casley-Smith, Experimentia, 31, 275 (1975).
Due to the great standard error, many replications are necessary in order to obtain reliable dose-response curves.

[2] = test system: blood-dot area in right ear; experiment: re-absorption of citrated blood injected in the rabbit ear (blood-dot area); assay type: in vivo, New Zealand rabbits; conditions: oral, placebo 20.3
Method: Finally, the compounds of the invention are able to induce re-absorption of the total citrated blood when blood is injected in the right ear of New Zealand rabbits. 12 hours after blood inoculation into ear, the animal were randomized and treated with scalar doses of the investigated compounds administered for 4 days by oral route. The blood-dot areas are evaluated and compared with the areas of the control animals treated with placebo only. In table 5 are reported some experimental results.

S. Pombae = experiment: forward mutation in S. Pombae; assay type: cell-based
lymphoedemas = experiment: preliminary experiments in humans with primary and secondary lymphoedemas; assay type: in vivo; conditions: capsules of 50 mg
Method: So, a very restricted number of selected male and female patients, affected by primary and secondary lymphoedemas, with intact renal and hepatic functions, was treated with the compounds of the invention, particularly with 6-fluoro coumarin.
In the absence of any other therapeutic treatment, the selected schedule of treatment foresees administration of capsules, many times pro die.
The diagnostic parameters investigated are: general and gastric clinical tolerability; number of red blood cell, leukocites, neutrophiles and platelets; haemoglobin concentration, γ-glutamyl transpeptidase; serum creatinine and volume of edema.

[3] = test system: S-typhimurium TA 1535, TA 1537, TA 1538, TA 98 and TA 100; experiment: Ames test; assay type: cell-based
coagulation factors = experiment: coagulation parameters (DPTT, Hepato quick, clotting time); assay type: in vivo
dog liver microsomes = experiment: incubation of labelled C^14-6 fluoro coumarin with dog liver microsomes; assay type: in vitro ADME; conditions: C^14-labelled
Method: Using the method reported by T. C. Butler et al. (Arch. Intern. Pharmacod. Ther., 228, 4 (1977)), labelled C^14 -6 fluoro coumarin was incubated with dog liver microsomes.

[4] = test system: burning induced oedema of hind paws; experiment: burning induced oedema test; assay type: in vivo, Sprague-Dawley male rats; conditions: for % inhibition / Paw volume, DV: 12 h; for activity relative to 6-fluoro coumarin (equiactive): burning induced oedema
Method: Reduction of the burning induced oedema test has been also used to evidentiate the antiinflammatory activity and the proteolytic mechanism of action of the compounds of the invention. 18 hours-fasted Sprague-Dawley male rats, body weight: 170-220 g, are used in this testing procedure. The animals are divided into five animal groups and the volume (in ml) of the posterior hind paws is measured before these paws are burnt by immersion for 22 seconds in 55° C. heated water. 15 minutes after burning, the animals are treated, by oral route, with different dosages of the investigated compounds and placebo. The volume of paws is measured 6, 12 and 18 hours after burning and the increased volume of the paws is evaluated.

[5] = test system: carrageenan induced edema of the rats hind paw; experiment: carrageenan induced edema of the rat hind paw; assay type: in vivo; conditions: for activity relative to coumarin: "at least 1.5-2.5 times more active than coumarin"; for reduction of carrageenan induced edema: at all the times (1; 3; 4 and 5 h)
Source text: 6-fluoro coumarin and the compounds of the invention are also effective in the management of the acute inflammation.
The carrageenan edema test proposed by Winter C. A., Risley A., Noss G. W. (Proc. Soc. Exp. Biol., 101, 544, 1962) was used.
The compounds, administered i.p. 30' before the carrageenan as suspension in 1% aqueous carboxymethylcellulose homogeneized by ultrasounds, were compared with coumarin at different dose-levels on 6 animal groups. The percent reduction of the rat hind paw edema was evaluated at different times.

coagulation = conditions: Schofield; Feuer et al.; cited from earlier work
[6] = test system: S. typhimurium (TA 1535, TA 1537, TA 1538, TA 98, TA 100); conditions: cited from earlier work
[7] = Occupational Safety and Health Administration; cited from earlier work
[8] = cited from earlier work
[9] = metabolism after oral administration to rabbits, analysis of faeces and urines over 24 hours; conditions: rabbit, coumarin in similar experimental conditions
Method: In a second experiment, C^14 -labelled 6-fluoro coumarin was administered by oral route to rabbits and faeces and urines were collected during a period of 24 hours. As it is usual for metabolic studies, the excreta were treated by β-glucoronidase and aryl sulfatase and extracted by methylene chloride in a little acid medium. […] In these studies, labelled 6-fluoro coumarin having a 1 Ci/mole specific radioactivity was used.

[10] = oral, 2 consecutive days, equimolecular doses

O=c1ccc2cc(F)cc(F)c2o1 [6,8-difluoro, 6,8-difluoro-2H-1-benzopyran-2-one]
Potency ratio in the proteolytic test [1]: 1.45

O=c1ccc2cc(F)ccc2o1 [6-fluoro coumarin, 6-fluoro-2H-1-benzopyran-2-one]
effects in mitotic genic conversion test (S. cerevisiae): No kinds of effects are noticed | % reduction of blood-dot area after 4 days ([2]; 25 mg/kg pro die): 64.13% | % reduction of blood-dot area after 4 days ([2]; 50 mg/kg pro die): 92% | effects in forward mutation test (S. Pombae): No kinds of effects are noticed | tolerability (lymphoedemas; 10 treated patients, all dosages investigated): excellent | patients with significant reduction of the oedema volume (lymphoedemas; of 10 treated patients): 4 patients | mutagenic property in the Ames test [3]: no mutagenic property is evident | effect on DPTT (coagulation factors; [10]): not able to modify | effect on Hepato quick (coagulation factors; [10]): not able to modify | effect on clotting time (coagulation factors; [10]): not able to modify | metabolism by cytochromes (dog liver microsomes): not metabolized by cytochromes | recovery of unchanged compound (dog liver microsomes): 80% | Significance of difference from control ([1]; 3.12 mg/kg i.p.): NS (p > 0.05) | Mean ICA-soluble fragm. (24 h-0 h) x 10^6 cell ([1]; 3.12 mg/kg i.p.): 0.22 mM glycin | Significance of difference from control ([1]; 6.25 mg/kg i.p.): NS (p > 0.05) | Mean ICA-soluble fragm. (24 h-0 h) x 10^6 cell ([1]; 6.25 mg/kg i.p.): 0.19 mM glycin | Significance of difference from control ([1]; 12.5 mg/kg i.p.): * (0.05 > p > 0.01) | Mean ICA-soluble fragm. (24 h-0 h) x 10^6 cell ([1]; 12.5 mg/kg i.p.): 0.29 mM glycin | Mean ICA-soluble fragm. (24 h-0 h) x 10^6 cell ([1]; 25 mg/kg i.p.): 0.37 mM glycin | Significance of difference from control ([1]; 50 mg/kg i.p.): * (0.05 > p > 0.01) | Potency ratio in the proteolytic test [1]: 11.5 | Mean ICA-soluble fragm. (24 h-0 h) x 10^6 cell ([1]; 50 mg/kg i.p.): 0.34 mM glycin | Mean ICA-soluble fragm. (24 h-0 h) x 10^6 cell ([1]; 100 mg/kg i.p.): 0.40 mM glycin | minimal effective dose ([1]; read-out: dosage level with proteolysis significantly greater than the control): > 6.25 mg/kg | minimal effective dose ([1]; read-out: dose from which stimulation of protein digestion starts): 12.5 mg/kg | increase in proteolysis [1]: threefold | effects in gene mutation test (somatic mammalian cells): No kinds of effects are noticed | % inhibition ([4]; 12.5 mg/kg oral): no sign | Paw volume, DV ([4]; 12.5 mg/kg oral): 0.86 mL | Paw volume, 12 h value ([4]; 12.5 mg/kg oral, basal 1.348): 2.207 mL | % inhibition ([4]; 25.0 mg/kg oral): 37% | Paw volume, DV ([4]; 25.0 mg/kg oral): 0.56 mL | Paw volume, 12 h value ([4]; 25.0 mg/kg oral, basal 1.504): 2.060 mL | % inhibition ([4]; 50.0 mg/kg oral): 67% | Paw volume, DV ([4]; 50.0 mg/kg oral): 0.29 mL | Paw volume, 12 h value ([4]; 50.0 mg/kg oral, basal 1.464): 1.760 mL | % inhibition ([4]; 1000.0 mg/kg oral): 71% | Paw volume, DV ([4]; 1000.0 mg/kg oral): 0.26 mL | Paw volume, 12 h value ([4]; 1000.0 mg/kg oral, basal 1.416): 1.676 mL | activity relative to coumarin [5]: 1.5-2.5 times | reduction of carrageenan induced edema [5]: reduce carrageenan induced edema of the rats hind paw at all the times

O=c1oc2ccccc2c(O)c1Cc1c(O)c2ccccc2oc1=O [dicoumarol, reference compound]
effect on DPTT (coagulation factors; [10]): very strong effect | effect on Hepato quick (coagulation factors; [10]): very strong effect | anticoagulant activity (coagulation): anticoagulant activites

COC1C=Cc2cc(F)ccc2O1 (stereo not shown) [6-fluoro-2.xi.-methoxy-2H-1-benzopyrane]
activity relative to 6-fluoro coumarin (equiactive) [4]: 0.85-1.5 times | % Reduction of the edema by carrageenan ([5]; 0.76 mg/kg i.p., 3 h): 58% | % Reduction of the edema by carrageenan ([5]; 1.55 mg/kg i.p., 3 h): 70% | % Reduction of the edema by carrageenan ([5]; 3.12 mg/kg i.p., 3 h): 79% | % Reduction of the edema by carrageenan ([5]; 3.12 mg/kg i.p., 5 h): 87% | % Reduction of the edema by carrageenan ([5]; 6.25 mg/kg i.p., 3 h): 84% | activity relative to coumarin [5]: 1.5-2.5 times | reduction of carrageenan induced edema [5]: reduce carrageenan induced edema of the rats hind paw at all the times

OC1Oc2ccc(F)cc2C=C1Br (stereo not shown) [6-fluoro-3-bromo-2.xi.-hydroxy-2H-1-benzopyrane]
% Reduction of the edema by carrageenan ([5]; 0.76 mg/kg i.p., 3 h): 65% | % Reduction of the edema by carrageenan ([5]; 1.55 mg/kg i.p., 3 h): 72% | % Reduction of the edema by carrageenan ([5]; 3.12 mg/kg i.p., 3 h): 88% | % Reduction of the edema by carrageenan ([5]; 3.12 mg/kg i.p., 5 h): 84% | % Reduction of the edema by carrageenan ([5]; 6.25 mg/kg i.p., 3 h): 87%

Cc1cc(=O)oc2ccc(F)cc12 [4-methyl-6-F, 6-fluoro-4-methyl-2H-1-benzopyran-2-one]
% reduction of blood-dot area after 4 days ([2]; 50 mg/kg pro die): 65% | Potency ratio in the proteolytic test [1]: 1.78 | activity relative to 6-fluoro coumarin (equiactive) [4]: 0.85-1.5 times | activity relative to coumarin [5]: 1.5-2.5 times | reduction of carrageenan induced edema [5]: reduce carrageenan induced edema of the rats hind paw at all the times

O=c1oc2ccc(F)cc2cc1Cl [3-Cl--6-fluoro, 6-fluoro-3-chloro-2H-1-benzopyran-2-one]
Potency ratio in the proteolytic test [1]: 1.4

O=c1ccc2ccccc2o1 [coumarin, 2H-1-benzopyran-2-one]
effects in mitotic genic conversion test (S. cerevisiae): positive responder | % reduction of blood-dot area after 4 days ([2]; 50 mg/kg pro die): 67.31% | mutagenicity [6]: weak mutagenic substance | effects in forward mutation test (S. Pombae): positive responder | effect on Hepato quick (coagulation factors; in vivo, po): moderately influences Hepato quick (in decreasing way) | carcinogen category [7]: category I carcinogen | anticoagulant activity (coagulation): anticoagulant activites | increase in proteolysis [1]: 2.2 fold | metabolism in man [8]: extensively metabolized in man upon first pass through the liver; also recorded: C-3 hydroxylation practically absent in man | effects in gene mutation test (somatic mammalian cells): positive responder | inhibition ([4]; 50 mg/kg): 35% | times less active than 6-fluoro coumarin ([4]; 50 mg/kg): about 2 times | % Reduction of the edema by carrageenan ([5]; 1.55 mg/kg i.p., 3 h): 23% | % Reduction of the edema by carrageenan ([5]; 3.12 mg/kg i.p., 3 h): 53% | % Reduction of the edema by carrageenan ([5]; 3.12 mg/kg i.p., 5 h): 53.4% | % Reduction of the edema by carrageenan ([5]; 6.25 mg/kg i.p., 3 h): 78% | metabolism (hydroxylation / lactone ring opening) [9]: metabolized by hydroxylation and also by δ-lactone ring opening; also recorded: metabolized by hydroxylation and by δ-lacton ring opening

OC1C=Cc2cc(F)ccc2O1 (stereo not shown) [6-fluoro-2H--1-benzopyran-2.zeta.-ol, 6-fluoro-2H-1-benzopyran-2.xi.-ol]
% reduction of blood-dot area after 4 days ([2]; 40 mg/kg pro die): 59% | Potency ratio in the proteolytic test [1]: 1.45 | activity relative to coumarin [5]: 1.5-2.5 times | reduction of carrageenan induced edema [5]: reduce carrageenan induced edema of the rats hind paw at all the times

O=c1oc2ccc(F)cc2cc1Br [3-Br--6-fluoro, 6-fluoro-3-bromo-2H-1-benzopyran-2-one]
% reduction of blood-dot area after 4 days ([2]; 50 mg/kg pro die): 69% | Potency ratio in the proteolytic test [1]: 1.75 | activity relative to 6-fluoro coumarin (equiactive) [4]: 0.85-1.5 times | activity relative to coumarin [5]: 1.5-2.5 times | reduction of carrageenan induced edema [5]: reduce carrageenan induced edema of the rats hind paw at all the times

CC(C)OC1C=Cc2cc(F)ccc2O1 (stereo not shown) [6-fluoro-2.xi.-isopropoxy-2H-1-benzopyrane]
Potency ratio in the proteolytic test [1]: 1.61 | activity relative to 6-fluoro coumarin (equiactive) [4]: 0.85-1.5 times | activity relative to coumarin [5]: 1.5-2.5 times | reduction of carrageenan induced edema [5]: reduce carrageenan induced edema of the rats hind paw at all the times

COC1Oc2ccc(F)cc2C=C1Br (stereo not shown) [6-fluoro-3-bromo-2.xi.-methoxy-2H-1-benzopyrane]
activity relative to 6-fluoro coumarin (equiactive) [4]: 0.85-1.5 times | activity relative to coumarin [5]: 1.5-2.5 times | reduction of carrageenan induced edema [5]: reduce carrageenan induced edema of the rats hind paw at all the times
